This note sets out measurements from ChEMBL document CHEMBL1133882, “Benzyloxybenzaldehyde analogues as novel adenylyl cyclase activators” (Bioorg Med Chem Lett, 2001).

Common to all, as to assay type: functional
One assay has as its system Rattus norvegicus. Nature of the assay: In vitro inhibitory effect on neutrophil superoxide formation isolated from pentobarbital-anesthetized rats.
For assay [1], the target named is Adenylate cyclase (Homo sapiens) (UniProt Q8NFM4+O60503+Q08828+P40145+O60266+O95622+O43306+Q08462+P51828). Nature of the assay: Effect of compound on cellular c-AMP levels by activation of Adenylate cyclase.
A short description of assay [2]: Ratio of cAMP-elevating activity relative to forskolin.

Broadly, the IC50 is the concentration that inhibits the measured activity by half. High values mean weaker potency, low ones greater potency. In turn, `O=Cc1ccc(OCc2ccccc2)cc1` showed an IC50 with Rattus norvegicus of 14.8 µM. The compound also showed an Activity (pM (2*10e6*cells)-1) in assay [1] of 0.26. Besides, the Ratio in assay [2] worked out at 0.22.
In the case of `O=Cc1ccccc1OCc1ccccc1`, in the assay with Rattus norvegicus, the IC50 was 15.6 µM. The Activity (pM (2*10e6*cells)-1) in assay [1] was 1.3. In assay [2], the Ratio came out at 1.1.
In assay [1], `C=C[C@@]1(C)CC(=O)[C@]2(O)[C@@]3(C)[C@@H](O)CCC(C)(C)[C@@H]3[C@H](O)[C@H](OC(C)=O)[C@@]2(C)O1` had an Activity (pM (2*10e6*cells)-1) of less than 1.23. In addition, the Ratio in assay [2] was 1.
In the assay on Rattus norvegicus, `O=Cc1cccc(OCc2ccccc2)c1` registered an IC50 of more than 30 µM. For the same compound, the Activity (pM (2*10e6*cells)-1) in assay [1] is 0.56. Besides, in assay [2], the Ratio was found to be 0.46.
For `CN1CCN(CCCN2c3ccccc3Sc3ccc(C(F)(F)F)cc32)CC1` [TRIFLUOPERAZINE], the IC50 in the assay on Rattus norvegicus was determined as 14.7 µM.
In turn, `NC(=O)c1ccccc1OCc1ccccc1` displayed an IC50 with Rattus norvegicus of 19.8 µM. In assay [1], this compound registered an Activity (pM (2*10e6*cells)-1) of 0.29. For the same compound, the Ratio in assay [2] worked out at 0.24.
Take `CC(=O)c1ccccc1OCc1ccccc1`: the IC50 in the assay on Rattus norvegicus was 12.8 µM. This compound returned an Activity (pM (2*10e6*cells)-1) in assay [1] of 0.26. For the same compound, the Ratio in assay [2] is 0.22.
